In patent US12582643B2, “Tasquinimod or a pharmaceutically acceptable salt thereof for use in combination therapy” (ACTIVE BIOTECH AB, priority 2020, dated 2026):

Legend:
[1] = system: Human NCI-H929 (H929) multiple myeloma cells; experiment: H929 human xenograft model, tasquinimod with bortezomib or dexamethasone (Example 1); type: in vivo; conditions: s.c. H929 in NSG mice; TQ 30 mg/kg drinking water; VEL 0.5 mg/kg i.v. every 4 days; compared to control mice; FIG. 1
Procedure: Human NCI-H929 (H929) multiple myeloma cells were inoculated subcutaneously in NSG mice. Tumour-bearing mice were treated with vehicle (VC), tasquinimod (TQ) 30 mg/kg ad lib in the drinking water starting when there were palpable tumors (i.e. day 18 after tumor inoculation); bortezomib (VEL), 0.5 mg/kg, i.v. every 4 days; dexamethasone (DEX), 10 mg/kg, i.p., 5 days on, 2 days off; or the combinations (TQ+DEX) and (TQ+VEL), and. Statistics: Two-way ANOVA; p-values VC vs TQ p=0.0009, VC vs VEL p=0.041, VC vs DEX p=0.0081, DEX vs DEX+TQ ns, TQ vs TQ+VEL p=0.0002, VEL vs VEL+TQ p=0.0361. The results are illustrated in FIG. 1.

MM1.S cells = experiment: Human MM1.S xenograft model of multiple myeloma, tasquinimod with lenalidomide (Example 2); type: in vivo; conditions: s.c. MM1.S in NSG mice; TQ 30 mg/kg/day drinking water; LEN 5 mg/kg oral gavage; from day 14; compared to control mice; FIG. 2
Procedure: The effect of tasquinimod in combination with lenalidomide was studied in a human MM1.S model of multiple myeloma. The MM1.S cells were established from a patient with IgA myeloma with characteristics typical of human myeloma cells (Greenstein et al., Exp Hematol. 2003 April; 31(4):271-82). MM1.S model was established by subcutaneous inoculation of 5×10^6 MM1.S cells into NSG mice. Treatment with tasquinimod (TQ), 30 mg/kg/day in the drinking water; lenalidomide (LEN), 5 mg/kg via oral gavage, 5 consecutive days with 2 days breaks until the endpoint, or the combination of tasquinimod and lenalidomide (TQ+LEN), started when the tumors were measurable (day 14 after tumor cell injection). Tumor size was monitored using a caliper and tumor volume was calculated. Differences between groups were evaluated by using two-way ANOVA; p-values: TQ vs TQ+LEN p=0.0001, LEN vs LEN+TQ p=0.0183. The results are illustrated in FIG. 2.

Structure (SMILES)	multiple myeloma tumor growth (tumour area), result in words [1]	multiple myeloma growth (tumour volume), result in words (MM1.S cells)
CC(C)C[C@H](NC(=O)[C@H](Cc1ccccc1)NC(=O)c1cnccn1)B(O)O [bortezomib, [(1R)-3-methyl-1-[[(2S)-3-phenyl-2-(pyrazine-2-carbonylamino)propanoyl]amino]butyl]-boronic acid]	reduced the multiple myeloma tumor growth	
Nc1cccc2c1CN(C1CCC(=O)NC1=O)C2=O (stereo not shown) [lenalidomide, 3-(4-amino-1-oxoisoindolin-2-yl)piperidine-2,6-dione]		reduced the multiple myeloma growth
COc1cccc2c1c(O)c(C(=O)N(C)c1ccc(C(F)(F)F)cc1)c(=O)n2C [tasquinimod, 4-hydroxy-5-methoxy-N,1-dimethyl-2-oxo-N-[4-(trifluoromethyl)phenyl]-1,2-dihydroquinoline-3-carboxamide]	reduced the multiple myeloma tumor growth	reduced the multiple myeloma growth
